From PMC9374667 (Communications Biology, 2022)
“And” between values parts separate entries of the source, which are not always exact repeats. Identical values can stand only once.

Experiments:
TBK1 [1] = target: T1, TBK1 (Mus musculus, UniProt Q9WUN2); assay: TBK1 activity assay in BAT; type: in vivo, mice; set-up: The adipose tissue was ultrasound-crushed in PBS buffer solution (1:9 w/v) to prepare the tissue homogenate; from tissue; host or cells: epididymal white adipose tissue (eWAT) and brown adipose tissue (BAT) of C57BLKS WT and db/db mice; conditions: for the expression of TBK1 in BAT of db/db mice: Figure 6m, individual values
T1 sequence (Q9WUN2 1-729): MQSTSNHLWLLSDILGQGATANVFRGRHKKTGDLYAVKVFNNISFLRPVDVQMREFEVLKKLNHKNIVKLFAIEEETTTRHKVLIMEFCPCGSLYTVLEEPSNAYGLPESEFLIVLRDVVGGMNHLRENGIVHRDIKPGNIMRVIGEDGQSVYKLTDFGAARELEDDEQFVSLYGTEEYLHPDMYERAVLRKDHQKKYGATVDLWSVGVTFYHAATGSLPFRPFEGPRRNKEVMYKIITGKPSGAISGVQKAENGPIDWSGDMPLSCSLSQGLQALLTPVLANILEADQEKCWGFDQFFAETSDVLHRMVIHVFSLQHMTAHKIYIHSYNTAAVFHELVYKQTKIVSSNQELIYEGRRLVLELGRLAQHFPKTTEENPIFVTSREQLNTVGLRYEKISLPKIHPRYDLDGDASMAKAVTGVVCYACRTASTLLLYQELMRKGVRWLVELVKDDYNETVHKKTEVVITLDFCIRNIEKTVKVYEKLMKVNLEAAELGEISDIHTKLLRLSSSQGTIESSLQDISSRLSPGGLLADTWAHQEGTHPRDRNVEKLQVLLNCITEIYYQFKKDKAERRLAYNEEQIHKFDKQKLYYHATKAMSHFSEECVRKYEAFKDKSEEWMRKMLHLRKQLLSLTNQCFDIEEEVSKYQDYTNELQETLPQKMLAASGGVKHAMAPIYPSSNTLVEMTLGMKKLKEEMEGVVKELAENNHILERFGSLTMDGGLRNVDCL
Procedure: The adipose tissue was ultrasound-crushed in PBS buffer solution (1:9 w/v) to prepare the tissue homogenate. The tissue homogenate was centrifuged at 5000 × g for 10 min, and the supernatant was taken for detection. Briefly, samples or standards were added to the microplates pre-coated with IKKε antibody or TBK1 antibody. Then horseradish peroxidase (HRP) labeled antibody was added and incubated at 37 °C for 60 min. After thorough washing, the 3,3′,5,5′-tetramethylbenzidine (TMB) substrate was used for color development, and the absorbance (OD value) was determined at 450 nm.

TBK1 [2] = target: T1, TBK1; assay: TBK1-knockdown 3T3-L1 adipocytes (siRNA; western blotting, immunofluorescence); type: cell-based, Murine; set-up: host or cells: differentiated 3T3-L1 adipocytes (Lipofectamine 2000); TBK1 (western blotting, Figure 9b) / p-AMPK (western blotting, Figure 9c) / UCP1 (western blotting, Figure 9d): unit not given here; conditions: for MitoTracker (immunofluorescence, Figure 9f) / UCP1 (immunofluorescence, Figure 9g): replicates 1-12
Procedure: Small interference RNA transfection (siRNA) was performed using 4 μM TBK1 siRNA (siTBK1) or 4 μM […]ε) or corresponding NC siRNA (siNC). The 3T3-L1 adipocytes were washed with PBS for 3 times, fixed with 4% paraformaldehyde solution for 30 min, and then washed again for 3 times. […] The cells were then incubated overnight at 4 °C with the appropriate primary antibodies (1:100 dilution). The next day, the 3T3-L1 adipocytes were washed and incubated at room temperature with goat anti-rabbit secondary antibody or goat anti-mouse secondary antibody (1:1000 dilution) for 2 h and washed with PBS for 3 times. The nuclei were stained with DAPI. […] Fluorescence images were taken using a laser confocal microscope (SP8, Leica, Germany). At least four images per section were acquired for quantification, and the mean intensity were evaluated using ImageJ. The adipose tissue or 3T3-L1 adipocytes were homogenized by ultrasound in an ice-cold RIPA lysis buffer containing 1% PMSF and centrifuged at 12,000 × g at 4°C for 15 min to collect the supernatant. The BCA protein assay kit (Beyotime, Shanghai, China) was used to detect the total protein concentration. Proteins (20-30 μg) of the sample were separated by 10% SDS-PAGE gel and transferred onto polyvinylidene difluoride (PVDF) membranes. Then the PVDF membranes were blocked in 5% skim milk powder in TBS containing 1% Tween-20 (TBST) for 2 h at room temperature and washed with TBST for 3 times. […] After washing, the membranes were incubated with horseradish peroxidase-conjugated secondary antibodies (in 5% skim milk powder) for 1 h at room temperature. Finally, the membranes were treated with enhanced chemiluminescence agents (Tanon, Shanghai, China) and the signals were monitored using the Tanon 5200 multi chemiluminescent imaging system (Tanon, Shanghai, China).

3T3-L1 adipocytes = assay: Immunofluorescence staining of UCP1 and MitoTracker; type: cell-based, Murine; set-up: key: mean fluorescence intensity measured in ImageJ; conditions: Figure 7d; 10uM BBR; replicates
Procedure: The 3T3-L1 adipocytes were washed with PBS for 3 times, fixed with 4% paraformaldehyde solution for 30 min, and then washed again for 3 times. […] The cells were then incubated overnight at 4 °C with the appropriate primary antibodies (1:100 dilution). The next day, the 3T3-L1 adipocytes were washed and incubated at room temperature with goat anti-rabbit secondary antibody or goat anti-mouse secondary antibody (1:1000 dilution) for 2 h and washed with PBS for 3 times. The nuclei were stained with DAPI. […] Fluorescence images were taken using a laser confocal microscope (SP8, Leica, Germany). At least four images per section were acquired for quantification, and the mean intensity were evaluated using ImageJ.

Structure (SMILES)	the expression of TBK1 in BAT of db/db mice (TBK1 [1]; db/db+BJ 75mg/kg)	the expression of TBK1 in BAT of db/db mice (TBK1 [1]; db/db+BJ 150mg/kg)	TBK1 activity and expression levels in BAT (TBK1 [1]; db/db mice, both doses of BJ)	TBK1 (western blotting, Figure 9b) (TBK1 [2]; 10μM BJ)	UCP1 (western blotting, Figure 9d) (TBK1 [2]; 10μM BJ)	p-AMPK (western blotting, Figure 9c) (TBK1 [2]; 10μM BJ)	MitoTracker (immunofluorescence, Figure 9f) (TBK1 [2]; 10μM BJ)	UCP1 (immunofluorescence, Figure 9g) (TBK1 [2]; 10μM BJ)	Expression of p-AMPKα and UCP1 (TBK1 [2]; 3T3-L1 adipocytes, BJ alone, 24 h)	Expression levels of p-AMPKα and UCP1 (TBK1 [2]; TBK1-knockdown 3T3-L1 adipocytes treated with BJ, vs TBK1-knockdown)	TBK1 (western blotting, Figure 9b) (TBK1 [2]; siTBK1+10μM BJ)	UCP1 (western blotting, Figure 9d) (TBK1 [2]; siTBK1+10μM BJ)	p-AMPK (western blotting, Figure 9c) (TBK1 [2]; siTBK1+10μM BJ)	MitoTracker (immunofluorescence, Figure 9f) (TBK1 [2]; siTBK1+10μM BJ)	UCP1 (immunofluorescence, Figure 9g) (TBK1 [2]; siTBK1+10μM BJ)	MitoTracker (3T3-L1 adipocytes)	UCP1 (3T3-L1 adipocytes)
CC(C)Cc1ccc(C(C)C(=O)[O-])cc1.COc1ccc2cc3[n+](cc2c1OC)CCc1cc2c(cc1-3)OCO2.O.O.O.O [BJ, berberine-ibuprofen]	0.366 U/g and 0.397 U/g and 0.402 U/g and 0.336 U/g and 0.384 U/g and 0.344 U/g	0.338 U/g and 0.377 U/g and 0.358 U/g and 0.428 U/g and 0.335 U/g and 0.369 U/g	had no effect	0.1548 and 0.1822 and 0.1679	0.6444 and 0.6902 and 0.5582	0.3674 and 0.4043 and 0.3553	22.957 and 24.343 and 25.025 and 18.793 and 24.708 and 21.147 and 28.941 and 23.595 and 21.858 and 24.262 and 23.917 and 27.936	28.366 and 25.764 and 25.784 and 25.906 and 27.454 and 28.774 and 34.011 and 26.939 and 25.523 and 31.625 and 28.718 and 27.261	significantly increased the expression of p-AMPKα and UCP1	not significantly changed	0.1211 and 0.0965 and 0.1123	0.7411 and 0.669 and 0.5981	0.4095 and 0.4234 and 0.498	25.218 and 30.785 and 30.877 and 30.71 and 22.848 and 22.479 and 31.768 and 31.566 and 27.335 and 20.91 and 29.763 and 33.52	30.066 and 28.142 and 35.211 and 34.925 and 27.446 and 30.425 and 28.118 and 35.655 and 39.617 and 27.871 and 25.612 and 40.285		
COc1ccc2cc3[n+](cc2c1OC)CCc1cc2c(cc1-3)OCO2 [BBR, Berberine chloride dihydrate]																25.545 and 18.064 and 22.543 and 21.627 and 16.023 and 19.205 and 20.957 and 15.64 and 24.469 and 20.477 and 21.808 and 21.524	28.534 and 25.717 and 23.768 and 26.01 and 16.988 and 23.573 and 17.055 and 20.669 and 24.128 and 20.8 and 21.801 and 21.746
